Legend:
ABCA1 gene = test: Quantitative analysis of ABCA1 gene regulation in THP-1 cells (real-time PCR); assay type: cell-based, human; conditions: Gene regulation by LXR (Human); differentiated THP-1 cells, 18 hrs, ABCA1 mRNA; read-out: EC50 ABCA1
Experimental: The compounds of formula (I) effect on the regulation of the ABCA1 gene was evaluated using the following procedure.
The THP-1 monocytic cell line (ATCC # TIB-202) was obtained from American Type Culture Collection (Manassas, Va.) and cultured in RPMI 1640 medium (Gibco, Carlsbad, Calif.) containing 10% FBS, 2 mM L-glutamine, and 55 uM beta-Mercaptoethanol (BME). […] Differentiated THP-1 cells were treated with test compounds or ligands dissolved in DMSO (Sigma, D-8779) in culture medium lacking phorbal ester. […] Unstimulated cells treated with vehicle were included as negative controls on each plate. An LXR agonist reference, N-(2,2,2-trifluoro-ethyl)-N-[4-(2,2,2-trifluoro-1-hydroxy-1-trifluoromethyl-ethyl)-phenyl]-benzenesulfonamide (Schultz, Joshua R., Genes & Development (2000), 14(22), 2831-2838), was dosed at 1.0 uM and served as a positive control. […] Results of antagonist analysis are expressed as % antagonism and IC50 (in μM).
Total cellular RNA was isolated from treated cells cultured in 96-well plates using PrepStation 6100 (Applied Biosystems, Foster City, Calif.), according to the manufacturer's recommendations. RNA was resuspended in ribonuclease-free water and stored at −70° C. prior to analysis. RNA concentrations were quantitated with RiboGreen test procedure, #R-11490 (Molecular Probes, Eugene, Oreg.).
Gene-specific mRNA quantitation was performed by real-time PCR with the Perkin Elmer Corp. chemistry on an ABI Prism 7700 Sequence detection system (Applied Biosystems, Foster City, Calif.) according to the manufacturer's instructions. Samples (50-100 ng) of total RNA were assayed in duplicate or triplicate in 50 μl reactions using one-step RT-PCR and the standard curve method to estimate specific mRNA concentrations. Sequences of gene-specific primer and probe sets were designed with Primer Express Software (Applied Biosystems, Foster City, Calif.). […] RT and PCR reactions were performed according to PE Applied Biosystem's protocol for Taqman Gold RT-PCR or Qiagen's protocol for Quantitect probe RT-PCR. Relative levels of ABCA1 mRNA are normalized using GAPDH mRNA or 18S rRNA probe/primer sets purchased commercially (Applied Biosystems, Foster City, Calif.).
Mean, standard deviation and statistical significance of duplicate evaluations of RNA samples were assessed using ANOVA, one-way analysis of variance using SAS analysis.

human LXRβ = target: T1, human LXRβ (Homo sapiens, UniProt P55055); test: Ligand-binding test procedure for human LXRβ (3H T0901317 tracer, flash plates)
T1 construct: biotin (biotinylated); made in house; host or cells: E. coli (crude extract)
T1 sequence (P55055 1-460): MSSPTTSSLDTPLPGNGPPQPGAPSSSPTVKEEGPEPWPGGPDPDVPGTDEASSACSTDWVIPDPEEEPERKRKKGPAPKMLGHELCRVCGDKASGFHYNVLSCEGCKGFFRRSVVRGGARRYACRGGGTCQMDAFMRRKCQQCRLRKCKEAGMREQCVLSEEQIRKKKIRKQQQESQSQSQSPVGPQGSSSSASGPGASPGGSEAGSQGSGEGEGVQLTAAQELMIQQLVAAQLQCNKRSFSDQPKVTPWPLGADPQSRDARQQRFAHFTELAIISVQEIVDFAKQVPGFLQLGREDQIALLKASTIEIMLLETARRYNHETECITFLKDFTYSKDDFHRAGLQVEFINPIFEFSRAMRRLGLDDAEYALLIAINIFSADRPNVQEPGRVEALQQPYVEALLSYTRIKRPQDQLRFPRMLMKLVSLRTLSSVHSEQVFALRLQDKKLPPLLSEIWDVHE
Experimental: Receptor source: E. coli extracted from cells expressing biotinylated hLXRβ. Extract was made in a similar buffer as above, but with 50 mM TRIS.
Washed streptavidin and coated flash plates with wash buffer. Diluted receptor extract to give Bmax ˜4000 cpm and add to the wells. Wrapped the plates in aluminum foil and stored them at +4° C. overnight.
(§1) Made a dilution series in DMSO of the test ligands. Made a 5 nM solution of the radioactive tracer in buffer. Mixed 250 μl diluted tracer with 5 μl of the test ligand from each concentration of the dilution series. Washed the receptor-coated flash plates. Added 200 μl per well of the ligand/radiolabel mixture to the receptor-coated flash plates. Wrapped the plates in aluminum foil and incubate at +4° C. over night.
Aspirated wells, and washed the flashed plates. Sealed the plate. Measured the remaining radioactivity in the plate.

human LXRα = target: T2, human LXRα (Homo sapiens, UniProt Q13133); test: Ligand-binding test procedure for human LXRα (3H T0901317 tracer, flash plates); conditions: biotinylated hLXRα, tracer 3H T0901317
T2 construct: biotin (biotinylated); made in house; host or cells: E. coli (crude extract)
T2 sequence (Q13133 1-447): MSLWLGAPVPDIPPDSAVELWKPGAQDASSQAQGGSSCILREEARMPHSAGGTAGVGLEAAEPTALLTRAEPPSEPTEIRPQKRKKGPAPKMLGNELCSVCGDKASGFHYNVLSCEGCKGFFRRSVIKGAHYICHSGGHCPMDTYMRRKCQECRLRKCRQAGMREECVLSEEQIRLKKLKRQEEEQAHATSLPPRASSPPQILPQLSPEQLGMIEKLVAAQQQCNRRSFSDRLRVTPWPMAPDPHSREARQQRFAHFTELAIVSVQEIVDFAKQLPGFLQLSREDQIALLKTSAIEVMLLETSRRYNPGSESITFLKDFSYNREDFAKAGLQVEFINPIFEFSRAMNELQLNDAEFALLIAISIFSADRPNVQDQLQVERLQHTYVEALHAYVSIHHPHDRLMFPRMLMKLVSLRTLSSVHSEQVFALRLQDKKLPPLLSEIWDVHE
Experimental: Receptor source: E. coli extract from cells expressing biotinylated hLXRcc. Extract was made in a similar buffer as above, but with 50 mM TRIS.
Washed streptavidin and coated flash plates with wash buffer. Diluted receptor extract to give Bmax ˜4000 cpm and add to the wells. Wrapped the plates in aluminum foil and stored them at +4° C. over night.
as §1
Aspirated wells, and wash the flashed plates. Sealed the plate. Measured the remaining radioactivity in the plate.

| Structure (SMILES) | EC50 (ABCA1 gene) [nM] | IC50 (human LXRβ) [nM] | IC50 (human LXRα) [nM] |
| --- | --- | --- | --- |
| CCS(=O)(=O)c1cccc(Oc2cccc(-n3c(C)nc4c(C(F)(F)F)cccc43)c2)c1 [Example 5, 1-{3-[3-(ethylsulfonyl)phenoxy]phenyl}-2-methyl-4-(trifluoromethyl)-1H-benzimidazole] | 395 |  |  |
| Cc1nc2c(C(F)(F)F)cccc2n1-c1cccc(Oc2cccc(S(=O)(=O)C(C)C)c2)c1 [Example 6, 1-{3-[3-(isopropylsulfonyl)phenoxy]phenyl}-2-methyl-4-(trifluoromethyl)-1H-benzimidazole] | 710 |  |  |
| CCS(=O)(=O)c1cc(F)cc(Oc2cccc(-n3c(C)nc4c(C(F)(F)F)cccc43)c2)c1 [Example 7, 1-{3-[3-(ethylsulfonyl)-5-fluorophenoxy]phenyl}-2-methyl-4-(trifluoromethyl)-1H-benzimidazole] | 1240 |  |  |
| Cc1nc2c(C(F)(F)F)cccc2n1-c1cccc(Oc2cc(F)cc(S(C)(=O)=O)c2)c1 [Example 8, 1-{3-[3-fluoro-5-(methylsulfonyl)phenoxy]phenyl}-2-methyl-4-(trifluoromethyl)-1H-benzimidazole] | 430 |  |  |
| Cc1nc2c(C(F)(F)F)cccc2n1-c1ccc(OCc2cccc(S(C)(=O)=O)c2)cc1 [Example 87, 2-methyl-1(4-{[3-(methylsulfonyl)benzyl]oxy}phenyl)-4-(trifluoromethyl)-1H-benzimidazole] |  | > 1000 | > 1000 |
| CCc1nc2c(C(F)(F)F)cccc2n1-c1ccc(Oc2ccc(C#N)c(S(C)(=O)=O)c2)cc1 [Example 88, 4-{4-[2-ethyl-4-(trifluoromethyl)-1H-benzimidazol-1-yl]phenoxy}-2-(methylsulfonyl)benzonitrile] |  | 1920 | 15100 |
| Cc1cc(Oc2cccc(S(C)(=O)=O)c2)ccc1-n1cnc2c(C(F)(F)F)cccc21 [Example 90, 1-{2-methyl-4-[3-(methylsulfonyl)phenoxy]phenyl}-4-(trifluoromethyl)-1H-benzimidazole] |  | 802 | 6530 |
| CCS(=O)(=O)c1cccc(Oc2ccc(-n3cnc4c(C(F)(F)F)cccc43)c(C)c2)c1 [Example 91, 1-{4-[3-(ethylsulfonyl)phenoxy]-2-methylphenyl}-4-(trifluoromethyl)-1H-benzimidazole] |  | 634 | 6110 |
| Cc1cc(Oc2cccc(S(=O)(=O)C(C)C)c2)ccc1-n1cnc2c(C(F)(F)F)cccc21 [Example 92, 1-(2-methyl-4-{3-[(1-methylethyl)sulfonyl]phenoxy}phenyl)-4-(trifluoromethyl)-1H-benzimidazole] |  | 348 | 3260 |
| Cc1cc(Oc2cccc(S(C)(=O)=O)c2)ccc1-n1c(C)nc2c(C(F)(F)F)cccc21 [Example 93, 2-methyl-1-{2-methyl-4-[3-(methylsulfonyl)phenoxy]phenyl}-4-(trifluoromethyl)-1H-benzimidazole] |  | 191 | 2780 |
| CCS(=O)(=O)c1cccc(Oc2ccc(-n3c(C)nc4c(C(F)(F)F)cccc43)c(C)c2)c1 [Example 94] |  | 122 | 2100 |
| Cc1cc(Oc2cc(F)cc(S(C)(=O)=O)c2)ccc1-n1cnc2c(C(F)(F)F)cccc21 [Example 96, 1-{4-[3-fluoro-5-(methylsulfonyl)phenoxy]-2-methylphenyl}-4-(trifluoromethyl)-1H-benzimidazole] |  | 2620 | 16000 |
| CCS(=O)(=O)c1cc(F)cc(Oc2ccc(-n3cnc4c(C(F)(F)F)cccc43)c(C)c2)c1 [Example 97, 1-{4-[3-(ethylsulfonyl)-5-fluorophenoxy]-2-methylphenyl}-4-(trifluoromethyl)-1H-benzimidazole] |  | 1110 | 8000 |
| Cc1cc(Oc2ccc(S(C)(=O)=O)cc2)ccc1-n1cnc2c(C(F)(F)F)cccc21 [Example 98, 1-{2-methyl-4-[4-(methylsulfonyl)phenoxy]phenyl}-4-(trifluoromethyl)-1H-benzimidazole] |  | 581 | 5200 |
| CCS(=O)(=O)c1cc(F)cc(Oc2ccc(-n3c(C)nc4c(C(F)(F)F)cccc43)c(C)c2)c1 [Example 99] |  | 301 | 3690 |
| Cc1cc(Oc2ccc(S(C)(=O)=O)cc2)ccc1-n1c(C)nc2c(C(F)(F)F)cccc21 [Example 100, 2-methyl-1-{2-methyl-4-[4-(methylsulfonyl)phenoxy]phenyl}-4-(trifluoromethyl)-1H-benzimidazole] |  | 1310 | 12000 |
| Cc1cc(Oc2cc(F)cc(S(C)(=O)=O)c2)ccc1-n1c(C)nc2c(C(F)(F)F)cccc21 [Example 101, 1-{4-[3-fluoro-5-(methylsulfonyl)phenoxy]-2-methylphenyl}-2-methyl-4-(trifluoromethyl)-1H-benzimidazole] |  | 405 | 4830 |
| Cc1nc2c(C(F)(F)F)cccc2n1-c1ccc(Oc2cccc(S(C)(=O)=O)c2)cc1Cl [Example 102, 1-{2-chloro-4-[3-(methylsulfonyl)phenoxy]phenyl}-2-methyl-4-(trifluoromethyl)-1H-benzimidazole] |  | 304 | 1960 |
| Cc1nc2c(C(F)(F)F)cccc2n1-c1ccc(Oc2cc(F)cc(S(C)(=O)=O)c2)cc1Cl [Example 103, 1-{2-chloro-4-[3-fluoro-5-(methylsulfonyl)phenoxy]phenyl}-2-methyl-4-(trifluoromethyl)-1H-benzimidazole] |  | 235 | 2670 |
| CS(=O)(=O)c1cccc(Oc2ccc(-n3cnc4c(C(F)(F)F)cccc43)c(Cl)c2)c1 [Example 104, 1-{2-chloro-4-[3-(methylsulfonyl)phenoxy]phenyl}-4-(trifluoromethyl)-1H-benzimidazole] |  | 479 | 2580 |
| CCS(=O)(=O)c1cccc(Oc2ccc(-n3cnc4c(C(F)(F)F)cccc43)c(Cl)c2)c1 [Example 105, 1-{2-chloro-4-[3-(ethylsulfonyl)phenoxy]phenyl}-4-(trifluoromethyl)-1H-benzimidazole] |  | 357 | 2710 |
| CS(=O)(=O)c1cc(F)cc(Oc2ccc(-n3cnc4c(C(F)(F)F)cccc43)c(Cl)c2)c1 [Example 106, 1-{2-chloro-4-[3-fluoro-5-(methylsulfonyl)phenoxy]phenyl}-4-(trifluoromethyl)-1H-benzimidazole] |  | 1230 | 3990 |

From US20110034526A1, “Benzimidazole Compounds” (Wyeth LLC, priority 2007, published 2011)
